The assay addresses hDGAT2 (Homo sapiens (Human), UniProt Q96PD7). The assay can be described thus: In vitro DGAT2 assay, determination of IC50 values for DGAT2 inhibitors. The format is biochemical. The note with it: hDGAT2 membrane fraction; [1-14C]decanoyl-CoA and 1,2-didecanoyl-sn-glycerol substrates; geometric mean IC50; read-out: IC50 values of Examples for inhibition of DGAT2. The protocol:
Recombinant baculovirus for the FLAG-tagged hDGAT2 was generated in SF9 insect cells using Bac-to-Bac baculovirus expression system (Invitrogen) according to the manufacturer's protocol. For the expression of hDGAT2, SF9 cells (20 L) grown in Sf900II media were infected with hDGAT2 baculovirus at a multiplicity of infection of 1 in a Wave Bioreactor System 20/50P wave bag (GE Healthcare). After 40 hours of infection, the cells were then harvested by centrifugation at 5,000×g. The cell pellets were washed by resuspending in phosphate buffered saline (PBS) and collected by centrifugation at 5,000×g. The cell paste was flash frozen in liquid N2 and stored at −80° C. until needed. All operations below were at 4° C. unless otherwise noted. […]
For determination of IC50 values, the reactions were carried out in 384-well white Polyplates (Perkin Elmer) in a total volume of 20 μL. […] Plates were centrifuged at 2,000×g for 1 min in an Allegra 6R Centrifuge (Beckman Coulter) and then were sealed again with fresh covers before reading in a 1450 Microbeta Wallac Trilux Scintillation Counter (Perkin Elmer). DGAT2 activity was measured by quantifying the generated product [^14C]tridecanoylglycerol in the upper organic phase. […]

The source of these data is patent US10188653B2, “Diacylglycerol acyltransferase 2 inhibitors” (Pfizer Inc., priority 2014, dated 2019).

Sequence of hDGAT2 (Q96PD7 whole entry): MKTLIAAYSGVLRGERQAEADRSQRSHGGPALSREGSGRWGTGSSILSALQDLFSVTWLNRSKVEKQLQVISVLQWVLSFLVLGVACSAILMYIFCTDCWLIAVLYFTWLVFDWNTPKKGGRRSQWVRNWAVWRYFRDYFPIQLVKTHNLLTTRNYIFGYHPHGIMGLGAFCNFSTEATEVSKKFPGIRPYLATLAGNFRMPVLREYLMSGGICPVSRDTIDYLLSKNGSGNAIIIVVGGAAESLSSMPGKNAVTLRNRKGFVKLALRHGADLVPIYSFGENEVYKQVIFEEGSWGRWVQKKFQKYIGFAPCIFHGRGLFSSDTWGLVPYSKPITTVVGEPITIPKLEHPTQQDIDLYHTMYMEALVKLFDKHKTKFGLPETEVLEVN

Take “(R)-2-(3-(2-ethoxy- phenoxy)piperidin-1-yl)- N-(1-hydroxy-2-methyl- propan-2-yl)pyrimidine- 5-carboxamide [Example 19.21]”: the IC50 amounted to 7.9 nM.

Broadly, the IC50 is the concentration needed to halve the response being measured.
